# From BindingDB's records for doi:10.1016/j.bmcl.2011.03.003 (Sanofi-Aventis, 2011)
# pIC50: −log10 of the molar value.
# Biological target: Insulin-like growth factor 1 receptor (Homo sapiens, UniProt P08069)
# Assay: Inhibition of IGF-induced autophosphosphorylation of GST-tagged human IGF1R expressed in SF21 cells by time resolved-fluorescent assay
# Insulin-like growth factor 1 receptor, sequence (P08069 31-736 limits assumed): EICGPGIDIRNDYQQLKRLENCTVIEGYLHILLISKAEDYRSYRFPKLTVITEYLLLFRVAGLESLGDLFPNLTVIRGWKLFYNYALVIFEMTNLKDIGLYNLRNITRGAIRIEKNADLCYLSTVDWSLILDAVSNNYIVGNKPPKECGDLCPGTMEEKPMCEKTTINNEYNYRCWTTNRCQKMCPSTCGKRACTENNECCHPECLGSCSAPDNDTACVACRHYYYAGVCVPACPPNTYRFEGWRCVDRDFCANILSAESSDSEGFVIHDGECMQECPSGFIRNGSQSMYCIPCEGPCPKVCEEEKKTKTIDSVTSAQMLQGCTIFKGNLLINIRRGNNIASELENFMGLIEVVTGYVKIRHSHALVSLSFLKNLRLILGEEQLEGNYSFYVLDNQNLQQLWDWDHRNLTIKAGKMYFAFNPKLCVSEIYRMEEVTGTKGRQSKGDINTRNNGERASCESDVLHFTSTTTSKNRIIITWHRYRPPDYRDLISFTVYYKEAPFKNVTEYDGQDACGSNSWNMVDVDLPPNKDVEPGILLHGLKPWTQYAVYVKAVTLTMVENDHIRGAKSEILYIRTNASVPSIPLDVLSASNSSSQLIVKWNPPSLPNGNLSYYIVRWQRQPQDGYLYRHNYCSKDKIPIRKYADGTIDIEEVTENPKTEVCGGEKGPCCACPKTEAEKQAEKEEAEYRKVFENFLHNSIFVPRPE
# Insulin-like growth factor 1 receptor, sequence (P08069 741-1367 limits assumed): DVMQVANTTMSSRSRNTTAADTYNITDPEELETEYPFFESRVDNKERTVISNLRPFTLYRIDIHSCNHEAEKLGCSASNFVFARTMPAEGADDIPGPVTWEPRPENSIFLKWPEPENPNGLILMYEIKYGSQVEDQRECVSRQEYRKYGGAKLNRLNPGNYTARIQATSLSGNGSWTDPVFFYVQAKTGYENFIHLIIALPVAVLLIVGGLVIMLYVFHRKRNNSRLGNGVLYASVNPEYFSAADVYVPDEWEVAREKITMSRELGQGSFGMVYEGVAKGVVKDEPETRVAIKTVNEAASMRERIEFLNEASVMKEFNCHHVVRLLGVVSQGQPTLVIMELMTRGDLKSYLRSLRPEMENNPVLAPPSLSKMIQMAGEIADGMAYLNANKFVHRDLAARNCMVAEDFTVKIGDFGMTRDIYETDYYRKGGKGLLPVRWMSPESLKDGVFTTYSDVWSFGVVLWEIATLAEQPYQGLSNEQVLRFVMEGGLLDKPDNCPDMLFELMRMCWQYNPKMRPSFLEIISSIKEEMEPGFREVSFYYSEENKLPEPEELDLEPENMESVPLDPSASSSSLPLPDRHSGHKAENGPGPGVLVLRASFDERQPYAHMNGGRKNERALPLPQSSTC
row,Structure (SMILES),pIC50
1,"Cc1c(O)n(-c2ccc(S(=O)(=O)C(F)(F)F)cc2)c(=O)n1Cc1cncc2ccccc12 [(S)-1-(isoquinolin-4-ylmethyl)-5-methyl-3-(4-(trifluoromethylsulfonyl)phenyl)imidazolidine-2,4-dione]",< 4.00
2,"Cc1c(O)n(-c2ccc(S(=O)(=O)C(F)(F)F)cc2)c(=O)n1Cc1ccccc1 [(S)-1-benzyl-5-methyl-3-(4-(trifluoromethylsulfonyl)phenyl)imidazolidine-2,4-dione]",< 4.00
3,"Cc1c(O)n(-c2ccc(S(=O)(=O)C(F)(F)F)cc2)c(=O)n1Cc1cc[n+]([O-])c2ccccc12 [(S)-4-((5-methyl-2,4-dioxo-3-(4-(trifluoromethylsulfonyl)phenyl)imidazolidin-1-yl)methyl)quinoline 1-oxide]",< 4.00
4,"Cc1c(O)n(-c2ccc(S(=O)(=O)C(F)(F)F)cc2)c(=O)n1Cc1ccccn1 [(S)-5-methyl-1-(pyridin-2-ylmethyl)-3-(4-(trifluoromethylsulfonyl)phenyl)imidazolidine-2,4-dione]",< 4.00

# Further lines, results first:
row,pIC50,Structure (SMILES)
1,< 4.00,"Cc1c(O)n(-c2ccc(S(=O)(=O)C(F)(F)F)cc2)c(=O)n1Cc1cnc[nH]1 [(S)-1-((1H-imidazol-4-yl)methyl)-5-methyl-3-(4-(trifluoromethylsulfonyl)phenyl)imidazolidine-2,4-dione]"
2,< 4.00,"Cc1c(O)n(-c2ccc(S(=O)(=O)C(F)(F)F)cc2)c(=O)n1Cc1cc[n+]([O-])cc1 [(S)-4-((5-methyl-2,4-dioxo-3-(4-(trifluoromethylsulfonyl)phenyl)imidazolidin-1-yl)methyl)pyridine 1-oxide]"
3,< 4.00,"Cc1c(O)n(-c2ccc(S(=O)(=O)C(F)(F)F)cc2)c(=O)n1CC1CCNCC1 [(S)-5-methyl-1-(piperidin-4-ylmethyl)-3-(4-(trifluoromethylsulfonyl)phenyl)imidazolidine-2,4-dione]"
4,< 4.00,"Cc1c(O)n(-c2ccc(S(C)(=O)=O)cc2)c(=O)n1Cc1ccnc2ccccc12 [(S)-5-methyl-3-(4-(methylsulfonyl)phenyl)-1-(quinolin-4-ylmethyl)imidazolidine-2,4-dione]"
